The values below come from PubChem BioAssay (NCI).

Where “and” joins values, the source holds several entries; their conditions need not be identical. Identical values can stand only once.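 Growth conditions: 96-well plates. Treatment: test compound, 48 hours, 5 concentrations. Analysis: linear interpolation between bracketing concentrations; unreached endpoints set to highest concentration. Abbreviation: GI50, concentration required for 50% inhibition of growth. The concentration for full growth arrest is given as TGI.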 Bounds are passed on as bounds.

Common to all, as to assay: NCI tumour cell line growth inhibition, 48 h
Assay [1] deals with KM20L2 colon.
Assay [2] concerns M19-MEL melanoma.
Assay [3] has as its system DLD-1 colon.
The subject of assay [4] is RXF-631 renal.
The subject of assay [5] is LXFL 529 NSCLC.
The subject of assay [6] is XF 498 CNS.
The test system of assay [7] is DMS 273 small cell lung.
In assay [8] the test system is MDA-N.
The test system of assay [9] is P388 leukemia.
For assay [10], the system named is P388/ADR leukemia.
The test system of assay [11] is SN12K1 renal.

Consider `O=C(NOC(=O)c1ccc([N+](=O)[O-])cc1)c1ccc(Cl)cc1`, for which the TGI in assay [1], in assay [2], in assay [3], in assay [4], in assay [5] and in [6] was over 100 µM each time.

As to `Nc1nc(Cl)cc(NCCCCCCNc2cc(Cl)nc(N)n2)n1`, the TGI in [1], in [2], in assay [3], in [4], in assay [7] and in assay [5] was over 100 µM in each case. This molecule returned a TGI in assay [6] of 87 µM.

`CCCC(=O)Nc1cn(COC)c(C(=O)N2C[C@H]3C[C@@]34C2=CC(=O)c2[nH]cc(C)c24)n1`: in [8], the GI50 is 7.62 µM; the TGI was 19.5 µM and 59.6 µM.

On to `Cc1cc(C)c2nccc(NCCCN(C)C)c2c1[N+](=O)[O-]`, for which, in [8], the TGI was over 100 µM.

As to `COc1cc(/C=C2/C(=O)N(C(=O)c3ccccc3O)N=C2C)ccc1O`, the TGI in assay [1] was over 100 µM; in [2] it was over 100 µM; in assay [3], over 100 µM; in [8] it was over 100 µM; in [5], over 100 µM; in assay [6], 79.6 µM.

On to `Cc1cc(N(CCC#N)CCC#N)ccc1/C=C/C(=O)Nc1ccccc1Cl`, for which the TGI in assay [1], in assay [2], in [3], in assay [7], in assay [5] and in [6] was over 100 µM in each case.

In assay [8], `O=C(O)C(Cc1c[nH]c2ccccc12)N1C(=O)c2ccccc2C1=O` (stereo not given) came in with a TGI of over 100 µM.

For `Nc1ccc2c(SCC(=O)Nc3ccccc3-c3ccccc3NC(=O)CSc3c4ccccc4nc4cc(N)ccc34)c3ccccc3nc2c1`, the TGI in assay [1] was over 93.5 µM; in [2] it was 70.5 µM; in [3], 38.4 µM; in assay [4], over 100 µM; in assay [8], over 69.5 µM; in [7] it was over 100 µM. Moreover, the values for the TGI in assay [5] and in assay [6] were 41.3 µM and 52.8 µM, respectively.

For the molecule `CCCCOP1(=O)C=CC(Cl)=C(C)C1` (stereo not given), the TGI is 49.5 µM in assay [1]; over 100 µM in assay [2]; over 100 µM in assay [4]; 94.4 µM in assay [5]; 43.2 µM in [6].

`CC(=O)N=S(NC(=O)c1ccc(C)cc1)C(Cl)(Cl)Cl` (stereo not given): the TGI in assay [8] is over 100 µM.

With `C=C(C[N+](C)(C)C)N/N=C/c1oc(-c2ccc(OC)c(OC)c2)c(-c2ccc(OC)c(OC)c2)c1[N+](=O)[O-]`, the TGI is over 100 µM in [1]; 29.3 µM in [2]; 46.9 µM in assay [3]; 52.4 µM in assay [5]; 56.6 µM in [6].

Regarding `O=C1c2c(O)ccc(O)c2C(=O)c2c(NCCNCCO)ccc(NCCNCCO)c21`, the TGI in assay [9] was 0.0821 µM; in assay [1] it was 8.09 µM; in assay [2] it was 0.925 µM; in [10], 6 µM; in assay [3], 4.87 µM; in assay [8] it was 1.48 µM and 1.66 µM. For the same molecule, the TGI was 0.57 µM in [7], 0.305 µM in [11] and 0.0879 µM in assay [6].

With `COc1cc(-c2nn3c(=O)n(-c4ccc(Cl)cc4)c(=O)nc3s2)cc(OC)c1OC`, the GI50 in assay [1], in assay [2] and in assay [3] was over 50 µM in each case. For the same molecule, the TGI was over 100 µM in assay [1]; over 100 µM in [2]; over 100 µM in assay [3]; 50 µM and > 100 µM in assay [4]; over 100 µM in assay [7].

In the case of `O=C1[C@H]2ON(c3ccccc3)C(c3cccc([N+](=O)[O-])c3)[C@H]2C(=O)N1c1ccc(Cc2ccc(N3C(=O)[C@@H]4ON(c5ccccc5)C(c5cccc([N+](=O)[O-])c5)[C@@H]4C3=O)cc2)cc1` (stereo not given in full), the TGI in assay [1], in assay [2], in assay [3], in assay [7] and in assay [5] was over 100 µM in each case.

As for `O=C(O)C(CS)N=Cc1nc(-c2ccccc2)oc1O` (stereo not given), the TGI in [1], in assay [2], in [3], in assay [7] and in assay [5] was over 100 µM each time.

In the case of `O=C1Nc2ccc(Br)cc2C1=Nc1ccc(Cl)cc1`, in [8], the TGI was determined as 23.5 µM.

`C=CCN(N=O)C(=O)ON1C(=O)CCC1=O`: the TGI in [1], in [2], in [3], in assay [4], in assay [7] and in [5] was over 100 µM each time.

Turning to `COC(=O)C1=C(C(=O)OC)N(C(C)C)[C@H]2C(C(=O)OC)=C(C(=O)OC)N(C(C)C)[C@@H]12`, the TGI in [1], in assay [2], in assay [3], in assay [4], in assay [7] and in assay [5] was over 100 µM throughout. For the same molecule, the TGI in assay [6] is over 100 µM.

On to `CCCC/C=C1\CCC(CN2CCCC2)C1=O` (stereo not given), for which the TGI in assay [1] amounted to 28.7 µM; in assay [2], 33.5 µM; in [3], 12.8 µM; in assay [4], 32.4 µM; in [7] it was 34.3 µM; in [5] it was 3.21 µM. The same molecule displayed a TGI in assay [6] of 29.6 µM.

Regarding `CC1(C)Oc2ccccc2N2O[C@@H]3C(=O)N(c4ccccc4)C(=O)[C@@H]3C21c1ccccc1` (stereo not given in full), the TGI in [1] is over 100 µM; in [2] it was 72.5 µM; in [3], 65.7 µM; in assay [5] it was over 100 µM.
